“And” between values parts separate entries of the source, which are not always exact repeats. Identical values can stand only once. “Also recorded” adds a separate entry of the source. Like-named read-outs stand apart in the source and are kept apart here.
What was measured:
Type in all cases: cell-based, Plasmodium falciparum
NF54^WT parasites = assay: microbe, parasite or virus in culture; conditions: for FC (IC50) / FC (IC90): NF54WT, reference line
Description: (§1) For the NF54-based lines and Dd2-B2-PfATP4^G358S and its parent, assays were initiated with cultures containing predominantly ring-stage parasites with a parasitaemia of 0.3% and a haematocrit of 1%. All assays using NF54 were performed in culture media containing 10% O + human serum. The duration of the assays was 72 h and the concentration of DMSO was <0.5% (v/v). Serial dilutions of the test compounds were performed using a Tecan D300e digital dispenser, with parasite cultures added manually. Parasite survival was assessed by flow cytometry on an Intellicyt iQue3 (Essen Bioscience), with 1× SYBR Green I (Invitrogen) and 200 nM MitoTracker Deep Red FM (Invitrogen) used to stain the nucleus and the mitochondria in live parasites, respectively. The gating strategy used to quantify parasite survival, performed using FlowJo version 10 (FlowJo LLC.), is illustrated in Supplementary Fig. 9. IC50 and IC90 values were calculated by linear interpolation of the dose-response data.

NF54^G358S-2 parasites = assay: P. falciparum proliferation assay (72 h, flow cytometry, SYBR Green I/MitoTracker); conditions: for FC (IC50) / FC (IC90): NF54G358S-2 compared to NF54WT
Description: as §1

NF54^CTL parasites = assay: as above; conditions: for FC (IC50) / FC (IC90): NF54CTL compared to NF54WT
Description: as §1

NF54^G358S-1 parasites = assay: as above; conditions: for FC (IC50) / FC (IC90): NF54G358S-1 compared to NF54WT
Description: as §1

[1] = tested on: parasite lines with a G358S mutation in PfATP4; assay: P. falciparum proliferation assays, statements on all lines with the G358S mutation; conditions: G358S lines vs PfATP4 wild-type controls
Description: as §1, with “Two types of parasite proliferation assays were employed in this study, with both yielding highly consistent results. For” for “For”
(§2) For experiments with all other parasites, the effects of compounds of interest on parasite proliferation was measured in 96-well plates containing serial dilutions of the compounds in culture medium, with a fluorescent DNA-intercalating dye used to detect surviving parasites. The assays were initiated with erythrocytes infected with predominantly ring-stage parasites, and the starting parasitaemia and haematocrit were both 1%. […] Fluorescence was measured using a FLUOstar OPTIMA plate reader (BMG LABTECH), with OPTIMA version 2.20R2 and MARS Data Analysis Software version 3.01 R2 (BMG LABTECH).

[2] = tested on: gene-edited NF54 lines (NF54^CTL, NF54^G358S-1, NF54^G358S-2); assay: P. falciparum proliferation assay, statements on several edited NF54 lines; conditions: all edited NF54 lines, including NF54CTL, vs NF54WT
Description: as §1, with “Two types of parasite proliferation assays were employed in this study, with both yielding highly consistent results. For” for “For”

[3] = tested on: Dd2-Polδ-PfATP4^G358S parasites; assay: P. falciparum proliferation assay (72 h, fluorescent DNA-intercalating dye)
Description: (§3) For experiments with all other parasites, the effects of compounds of interest on parasite proliferation was measured in 96-well plates containing serial dilutions of the compounds in culture medium, with a fluorescent DNA-intercalating dye used to detect surviving parasites. The assays were initiated with erythrocytes infected with predominantly ring-stage parasites, and the starting parasitaemia and haematocrit were both 1%.

Dd2-Polδ parasites = assay: as above
Description: as §3

[4] = tested on: MMV665949-selected Culture 1 (from Dd2-Polδ; not cloned); assay: as above; conditions: n = 4
Description: as §2

[5] = NF54WT parasites, individual experiments, read-out: IC50 values
[6] = NF54WT parasites, individual experiments, read-out: IC90 values
[7] = Plasmodium falciparum, NF54, NF54WT parasites, mean of the experiments, read-out: IC50 values, MEAN
[8] = Plasmodium falciparum, NF54, NF54WT parasites, mean of the experiments, read-out: IC90 values, MEAN
[9] = NF54G358S-2 parasites, individual experiments, read-out: IC50 values
[10] = NF54G358S-2 parasites, individual experiments, read-out: IC90 values
[11] = Plasmodium falciparum, NF54, NF54G358S-2 parasites, individual experiments, read-out: IC50 values
[12] = Plasmodium falciparum, NF54, NF54G358S-2 parasites, individual experiments, read-out: IC90 values
[13] = Plasmodium falciparum, NF54, NF54G358S-2 parasites, mean of the experiments, read-out: IC50 values, MEAN
[14] = Plasmodium falciparum, NF54, NF54G358S-2 parasites, mean of the experiments, read-out: IC90 values, MEAN
[15] = NF54CTL parasites, individual experiments, read-out: IC50 values
[16] = NF54CTL parasites, individual experiments, read-out: IC90 values
[17] = Plasmodium falciparum, NF54, NF54CTL parasites, individual experiments, read-out: IC50 values
[18] = Plasmodium falciparum, NF54, NF54CTL parasites, individual experiments, read-out: IC90 values
[19] = Plasmodium falciparum, NF54, NF54CTL parasites, mean of the experiments, read-out: IC50 values, MEAN
[20] = Plasmodium falciparum, NF54, NF54CTL parasites, mean of the experiments, read-out: IC90 values, MEAN
[21] = NF54G358S-1 parasites, individual experiments, read-out: IC50 values
[22] = NF54G358S-1 parasites, individual experiments, read-out: IC90 values
[23] = Plasmodium falciparum, NF54, NF54G358S-1 parasites, individual experiments, read-out: IC50 values
[24] = Plasmodium falciparum, NF54, NF54G358S-1 parasites, individual experiments, read-out: IC90 values
[25] = Plasmodium falciparum, NF54, NF54G358S-1 parasites, mean of the experiments, read-out: IC50 values, MEAN
[26] = Plasmodium falciparum, NF54, NF54G358S-1 parasites, mean of the experiments, read-out: IC90 values, MEAN

Compound | IC50 (NF54^WT parasites; [5]) | IC90 (NF54^WT parasites; [6]) | FC (IC50) (NF54^WT parasites) | FC (IC90) (NF54^WT parasites) | IC50 (NF54^WT parasites; [7]) | IC90 (NF54^WT parasites; [8]) | FC (IC50) (NF54^G358S-2 parasites) | FC (IC90) (NF54^G358S-2 parasites) | IC50 (NF54^G358S-2 parasites; [9]) | IC90 (NF54^G358S-2 parasites; [10]) | IC50 (NF54^G358S-2 parasites; [11]) | IC90 (NF54^G358S-2 parasites; [12]) | IC50 (NF54^G358S-2 parasites; [13]) | IC90 (NF54^G358S-2 parasites; [14]) | FC (IC50) (NF54^CTL parasites) | FC (IC90) (NF54^CTL parasites) | IC50 (NF54^CTL parasites; [15]) | IC90 (NF54^CTL parasites; [16]) | IC50 (NF54^CTL parasites; [17]) | IC90 (NF54^CTL parasites; [18]) | also measured
COc1nc(C(C)C)ccc1-c1cnc2sc(N3CCC(O)(CN)CC3)nn12 [INE963] | 0.63 nM and 0.74 nM and 1.17 nM | 1.68 nM and 1.36 nM and 1.75 nM and 2.98 nM | 1.0 fold | 1.0 fold | 0.81 nM | 1.9 nM | 1.4 fold | 1.4 fold | 1.11 nM and 0.93 nM and 1.44 nM | 2.37 nM and 2.77 nM and 3.43 nM | 1.1 nM | 2.11 nM | 1.15 nM | 2.7 nM | 1.5 fold | 1.3 fold | 1.15 nM and 1.14 nM and 1.42 nM | 2.46 nM and 2.4 nM and 3.34 nM | 1.02 nM | 1.87 nM | IC50 (NF54^WT parasites; Plasmodium falciparum, NF54, NF54WT parasites, individual experiments, read-out: IC50 values): 0.7 nM; IC50 (NF54^WT parasites; Plasmodium falciparum, NF54, NF54WT, 10% human serum, read-out: IC50 ± SEM): 0.8 ± 0.1 nM; IC50 (NF54^CTL parasites; [19]): 1.18 nM; IC90 (NF54^CTL parasites; [20]): 2.5 nM; IC50 (NF54^CTL parasites; Plasmodium falciparum, NF54, NF54CTL, 10% human serum, read-out: IC50 ± SEM): 1.2 ± 0.1 nM; FC (IC50) (NF54^G358S-1 parasites): 1.4 fold; FC (IC90) (NF54^G358S-1 parasites): 1.4 fold; IC50 (NF54^G358S-1 parasites; [21]): 1.09 nM and 1.1 nM and 1.41 nM; IC90 (NF54^G358S-1 parasites; [22]): 2.82 nM and 2.85 nM and 3.37 nM; IC50 (NF54^G358S-1 parasites; [23]): 0.91 nM; IC90 (NF54^G358S-1 parasites; [24]): 1.87 nM; IC50 (NF54^G358S-1 parasites; [25]): 1.13 nM; IC90 (NF54^G358S-1 parasites; [26]): 2.7 nM; effect of the G358S mutation in PfATP4 on parasite susceptibility [1]: no impact; also recorded: no effect; fold increase in IC50 value [2]: 1.4-1.5 fold
Oc1ccc(C(=C(Cl)Cl)c2ccc(O)cc2)cc1 [MMV665949] | – | – | – | – | – | – | – | – | – | – | – | – | – | – | – | – | – | – | – | – | IC50 fold higher than that of Dd2-Polδ parent ([3]; Dd2-Polδ-PfATP4G358S vs Dd2-Polδ, mean ± SEM): no significant change; IC50 ([3]; Dd2-Polδ-PfATP4G358S, Supplementary Table 1, Set 2, read-out: Mean IC50 value ± SEM for growth inhibition): 4870 ± 880 nM; IC50 (Dd2-Polδ parasites; Dd2-Polδ, Supplementary Table 1, Set 2, read-out: Mean IC50 value ± SEM for growth inhibition): 4270 nM; IC50 (Dd2-Polδ parasites; parental Dd2-Polδ, paired with MMV665949-selected Culture 1, n = 4, read-out: IC50): 4300 ± 700 nM; IC50 fold higher than for parental Dd2-Polδ ([4]; MMV665949-selected Culture 1, paired experiments): 10.7 ± 2.0 fold; IC50 ([4]; MMV665949-selected Culture 1, mean ± SEM, read-out: IC50): 44000 ± 7000 nM
COc1ccc2nc3cc(Cl)ccc3c(Nc3cc(CN4CCCC4)c(O)c(CN4CCCC4)c3)c2n1 [Pyronaridine] | 0.91 nM and 1.08 nM and 1.42 nM and 2.14 nM | 1.44 nM and 2.14 nM and 2.78 nM and 4.07 nM | 1.0 fold | 1.0 fold | 1.4 nM | 2.61 nM | 1.2 fold | 1.1 fold | 1.86 nM and 1.73 nM and 2.02 nM | 2.89 nM and 2.85 nM and 2.91 nM | 1.25 nM | 2.63 nM | 1.7 nM | 2.82 nM | 1.2 fold | 1.1 fold | 1.43 nM and 1.8 nM and 1.81 nM | 2.8 nM and 2.91 nM | 1.47 nM | 2.85 nM | IC90 (NF54^WT parasites; Plasmodium falciparum, NF54, NF54WT, 10% human serum, read-out: IC90 ± SEM): 2.6 ± 0.6 nM; IC90 (NF54^G358S-2 parasites; Plasmodium falciparum, NF54, NF54G358S-2, 10% human serum, read-out: IC90 ± SEM): 2.8 ± 0.1 nM; IC50 (NF54^CTL parasites; [19]): 1.6 nM; IC90 (NF54^CTL parasites; [20]): 2.86 nM; IC90 (NF54^CTL parasites; Plasmodium falciparum, NF54, NF54CTL, 10% human serum, read-out: IC90 ± SEM): 2.9 ± 0.02 nM; FC (IC50) (NF54^G358S-1 parasites): 1.3 fold; FC (IC90) (NF54^G358S-1 parasites): 1.1 fold; IC50 (NF54^G358S-1 parasites; [21]): 1.77 nM and 2.02 nM and 2.17 nM; IC90 (NF54^G358S-1 parasites; [22]): 2.9 nM and 3.07 nM and 3.12 nM; IC50 (NF54^G358S-1 parasites; [23]): 1.24 nM; IC90 (NF54^G358S-1 parasites; [24]): 2.64 nM; IC50 (NF54^G358S-1 parasites; [25]): 1.8 nM; IC90 (NF54^G358S-1 parasites; [26]): 2.93 nM; effect of the G358S mutation in PfATP4 on parasite susceptibility [1]: no effect

Reference: publication PMC9525273 (Nature Communications, 2022)
